Experimental data published in article PMC3529200 (Bioorganic & medicinal chemistry letters, 2010).

Assays:
[1] = system: ca.150 other enzyme and receptor targets; experiment: selectivity panel of ca.150 other enzyme and receptor targets; conditions: tested at 10 μM
[2] = system: AngII-induced hypertension; experiment: AngII-infused rat model of hypertension; format: in vivo, Sprague-Dawley rats; conditions: 50 mg/kg orally twice daily
[3] = system: impaired glucose tolerance; experiment: diet induced-obesity; format: in vivo, C57Bl/6 mice; conditions: 100 mg/kg oral twice a day, after 4 weeks, ip glucose 2 g/kg 4 hours after dose
[4] = early animal and human dose range finding toxicology studies; cited from earlier work
CYP1A2 = molecular target: T1, CYP1A2 (Homo sapiens, UniProt P05177); experiment: CYP inhibition
T1 sequence (P05177 1-516): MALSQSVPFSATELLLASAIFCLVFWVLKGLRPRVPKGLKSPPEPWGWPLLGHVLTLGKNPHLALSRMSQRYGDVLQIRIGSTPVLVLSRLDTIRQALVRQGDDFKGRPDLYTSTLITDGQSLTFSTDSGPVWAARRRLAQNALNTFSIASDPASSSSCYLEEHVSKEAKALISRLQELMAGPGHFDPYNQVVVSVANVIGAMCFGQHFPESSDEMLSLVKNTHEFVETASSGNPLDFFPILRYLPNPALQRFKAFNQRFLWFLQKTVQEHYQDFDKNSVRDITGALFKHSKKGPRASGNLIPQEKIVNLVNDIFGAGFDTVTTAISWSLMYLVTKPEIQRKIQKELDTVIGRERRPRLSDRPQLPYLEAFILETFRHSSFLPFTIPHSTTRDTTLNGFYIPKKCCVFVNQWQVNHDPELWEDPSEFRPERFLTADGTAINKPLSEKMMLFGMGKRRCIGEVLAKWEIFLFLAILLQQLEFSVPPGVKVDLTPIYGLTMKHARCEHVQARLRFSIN

CYP2B6 = molecular target: T2, CYP2B6 (Homo sapiens, UniProt P20813); experiment: CYP inhibition
T2 sequence (P20813 1-491): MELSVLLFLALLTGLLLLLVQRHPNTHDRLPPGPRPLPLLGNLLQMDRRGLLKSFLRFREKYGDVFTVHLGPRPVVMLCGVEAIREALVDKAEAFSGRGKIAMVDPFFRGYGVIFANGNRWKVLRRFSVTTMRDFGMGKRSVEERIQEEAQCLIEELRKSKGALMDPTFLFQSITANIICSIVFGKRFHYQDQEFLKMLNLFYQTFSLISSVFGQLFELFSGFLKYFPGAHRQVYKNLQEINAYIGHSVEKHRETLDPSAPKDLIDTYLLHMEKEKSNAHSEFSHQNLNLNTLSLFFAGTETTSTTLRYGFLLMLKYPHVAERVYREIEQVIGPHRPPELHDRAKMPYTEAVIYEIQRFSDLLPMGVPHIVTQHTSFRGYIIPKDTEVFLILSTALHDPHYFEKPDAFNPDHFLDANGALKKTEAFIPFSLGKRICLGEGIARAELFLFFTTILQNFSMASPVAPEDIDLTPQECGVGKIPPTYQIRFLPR

CYP2C9 = CYP2C9 (Homo sapiens, UniProt P11712); experiment: CYP inhibition
Sequence of CYP2C9 (P11712 whole entry): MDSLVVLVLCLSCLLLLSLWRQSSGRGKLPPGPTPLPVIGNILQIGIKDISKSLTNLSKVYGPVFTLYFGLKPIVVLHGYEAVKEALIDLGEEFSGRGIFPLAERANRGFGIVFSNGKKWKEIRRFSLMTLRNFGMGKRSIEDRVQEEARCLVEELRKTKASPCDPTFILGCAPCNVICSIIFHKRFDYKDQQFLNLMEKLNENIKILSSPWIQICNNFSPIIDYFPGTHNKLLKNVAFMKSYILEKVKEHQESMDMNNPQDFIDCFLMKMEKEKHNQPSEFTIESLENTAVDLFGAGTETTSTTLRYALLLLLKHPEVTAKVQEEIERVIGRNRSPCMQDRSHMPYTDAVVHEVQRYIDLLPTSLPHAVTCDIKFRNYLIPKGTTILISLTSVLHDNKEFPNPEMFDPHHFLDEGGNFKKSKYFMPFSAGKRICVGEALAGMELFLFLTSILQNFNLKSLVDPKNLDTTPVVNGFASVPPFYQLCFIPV

CYP2C19 = CYP2C19 (Homo sapiens, UniProt P33261); experiment: CYP inhibition
Sequence of CYP2C19 (P33261 whole entry): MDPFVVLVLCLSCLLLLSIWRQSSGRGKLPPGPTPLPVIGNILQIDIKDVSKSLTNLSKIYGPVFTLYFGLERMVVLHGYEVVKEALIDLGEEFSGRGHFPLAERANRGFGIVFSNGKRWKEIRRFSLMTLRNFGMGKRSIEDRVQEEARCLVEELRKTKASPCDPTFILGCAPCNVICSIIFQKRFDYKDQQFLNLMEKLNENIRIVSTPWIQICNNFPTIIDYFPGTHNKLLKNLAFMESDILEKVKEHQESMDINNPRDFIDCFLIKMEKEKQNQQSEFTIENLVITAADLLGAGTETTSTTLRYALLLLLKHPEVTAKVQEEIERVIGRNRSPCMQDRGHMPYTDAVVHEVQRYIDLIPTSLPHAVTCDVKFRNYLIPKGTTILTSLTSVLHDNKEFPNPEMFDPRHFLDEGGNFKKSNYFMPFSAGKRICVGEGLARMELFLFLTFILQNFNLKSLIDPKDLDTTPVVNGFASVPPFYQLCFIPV

CYP3A4 = CYP3A4 (Homo sapiens, UniProt P08684); experiment: CYP inhibition
Sequence of CYP3A4 (P08684 whole entry): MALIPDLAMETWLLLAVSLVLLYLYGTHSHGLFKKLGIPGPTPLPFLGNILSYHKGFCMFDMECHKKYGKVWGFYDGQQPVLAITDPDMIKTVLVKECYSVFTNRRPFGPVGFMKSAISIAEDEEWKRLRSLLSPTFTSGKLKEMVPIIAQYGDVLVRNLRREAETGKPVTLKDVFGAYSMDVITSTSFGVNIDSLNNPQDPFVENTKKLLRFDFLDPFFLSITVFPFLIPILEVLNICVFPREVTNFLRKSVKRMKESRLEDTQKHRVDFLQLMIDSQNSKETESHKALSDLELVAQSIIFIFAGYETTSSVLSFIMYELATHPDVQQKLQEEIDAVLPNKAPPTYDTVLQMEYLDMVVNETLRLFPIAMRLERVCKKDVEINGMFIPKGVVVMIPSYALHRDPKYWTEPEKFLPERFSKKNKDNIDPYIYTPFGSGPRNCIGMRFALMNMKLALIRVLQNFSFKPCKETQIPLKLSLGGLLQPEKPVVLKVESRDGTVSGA

CYP2J = experiment: CYP inhibition
CYP2C = experiment: CYP inhibition
rat pharmacokinetics = conditions: up to 2000 mg/kg in rats
dog pharmacokinetics = conditions: up to 500 mg/kg in dogs
Caco-2 monolayer = Caco-2 monolayer permeability
[5] = cynomolgus monkey pharmacokinetics; conditions: up to 180 mg/kg in cynomolgus monkeys
[6] = pharmacokinetics, species not specified; conditions: in vivo

For `CC(=O)N1CCC(NC(=O)NC23CC4CC(CC(C4)C2)C3)CC1` [Compound 14a, 1-(1-Acetyl-piperidin-4-yl)-3-adamantan-1-yl-urea], the “inhibitory activity against panel of ca.150 other enzyme and receptor targets” value [1] was “no inhibitory activity”, the “effect on diastolic pressure” value [2] was “more modest effect” and the “glucose AUC versus vehicle-treated animals” value [3] was “lower”. For the same compound, the “maximal glucose excursion versus vehicle-treated animals” value [3] was “lower”, the tolerability [4] was “well tolerated” and the “inhibition of CYP1A2” value (CYP1A2) was “No significant inhibition”. The “inhibition of CYP2B6” value (CYP2B6) was “No significant inhibition”, the “inhibition of CYP2C9” value (CYP2C9) was “No significant inhibition” and the “inhibition of CYP2C19” value (CYP2C19) was “No significant inhibition”. For the same compound, the “inhibition of CYP3A4” value (CYP3A4) was “No significant inhibition”, the “inhibition of CYP2J” value (CYP2J) was “No significant inhibition” and the “inhibition of CYP2C” value (CYP2C) was “No significant inhibition”. The “oral exposure (AUC) versus dose” value (rat pharmacokinetics) was “increased in approximate proportion to dose”, the “oral exposure (AUC) versus dose” value (dog pharmacokinetics) was “increased in approximate proportion to dose” and the fraction unbound (plasma protein binding) was 0.39 to 0.42. For the same compound, the “permeability across a Caco-2 monolayer” value (Caco-2 monolayer) was “highly permeable”, the “oral exposure (AUC) versus dose” value [5] was “increased in approximate proportion to dose” and the clearance [6] was “relatively moderate to high”. The half life [6] was “short”.
